Data as given in PubChem BioAssay AID2060618 (Molecular Pharmacology Branch, DTP, NCI, 2025).

Test system: 454973-116-R2-J3-PDC spheroids, percent test/control viability
Assay: Anticancer human tumor 454973-116-R2-J3-PDC patient-derived pancreatic carcinoma cell line growth inhibition [CLK]
Conditions: spheroids with HUVEC and MSC; for IC50: curve of first compound; for viability, T/C: stronger effect = lower value
How it was run: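 Multi-cell-type spheroids combined patient-derived tumor cells with HUVEC endothelial cells and human mesenchymal stem cells. Paired agents were dosed in half-log steps down from about clinical Cmax, or from 10 microM where Cmax was unknown.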
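Also: spheroids exposed to compounds for 7 days before readout.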

CC1(C)CCC(CN2CCN(c3ccc(C(=O)NS(=O)(=O)c4ccc(NCC5CCOCC5)c([N+](=O)[O-])c4)c(Oc4cnc5[nH]ccc5c4)c3)CC2)=C(c2ccc(Cl)cc2)C1 + CNC(=O)c1ccc(Nc2nc(OC3CCCC3)c3c(-c4ccc5nc(C)oc5c4)c[nH]c3n2)c(OC)c1
IC50 (second compound 0.0316 µM): 6830 nM
IC50 (second compound 0.1 µM): 6950 nM
IC50 (second compound 0.316 µM): < 31.6 nM
IC50 (second compound 1 µM): < 31.6 nM
IC50 (second compound 3.16 µM): < 31.6 nM
IC50 (second compound 10 µM): < 31.6 nM
viability, T/C (second compound 0.0316 µM, first compound 0.0316 µM): 95.9%
viability, T/C (second compound 0.0316 µM, first compound 0.1 µM): 94.7%
viability, T/C (second compound 0.0316 µM, first compound 0.316 µM): 103%
viability, T/C (second compound 0.0316 µM, first compound 1 µM): 102%
viability, T/C (second compound 0.0316 µM, first compound 3.16 µM): 112%
viability, T/C (second compound 0.0316 µM, first compound 10 µM): 24.5%
viability, T/C (second compound 0.1 µM, first compound 0.0316 µM): 96.3%
viability, T/C (second compound 0.1 µM, first compound 0.1 µM): 98.8%
viability, T/C (second compound 0.1 µM, first compound 0.316 µM): 93.9%
viability, T/C (second compound 0.1 µM, first compound 1 µM): 94%
viability, T/C (second compound 0.1 µM, first compound 3.16 µM): 102%
viability, T/C (second compound 0.1 µM, first compound 10 µM): 28.1%
viability, T/C (second compound 0.316 µM, first compound 0.0316 µM): 37.5%
viability, T/C (second compound 0.316 µM, first compound 0.1 µM): 38.5%
viability, T/C (second compound 0.316 µM, first compound 0.316 µM): 37.6%
viability, T/C (second compound 0.316 µM, first compound 1 µM): 40.3%
viability, T/C (second compound 0.316 µM, first compound 3.16 µM): 32.5%
viability, T/C (second compound 0.316 µM, first compound 10 µM): 21.1%
viability, T/C (second compound 1 µM, first compound 0.0316 µM): 27.2%
viability, T/C (second compound 1 µM, first compound 0.1 µM): 26.2%
viability, T/C (second compound 1 µM, first compound 0.316 µM): 28.3%
viability, T/C (second compound 1 µM, first compound 1 µM): 28.4%
viability, T/C (second compound 1 µM, first compound 3.16 µM): 28.3%
viability, T/C (second compound 1 µM, first compound 10 µM): 23.4%
viability, T/C (second compound 3.16 µM, first compound 0.0316 µM): 29.2%
viability, T/C (second compound 3.16 µM, first compound 0.1 µM): 25.2%
viability, T/C (second compound 3.16 µM, first compound 0.316 µM): 26.9%
viability, T/C (second compound 3.16 µM, first compound 1 µM): 23.9%
viability, T/C (second compound 3.16 µM, first compound 3.16 µM): 27.6%
viability, T/C (second compound 3.16 µM, first compound 10 µM): 22.3%
viability, T/C (second compound 10 µM, first compound 0.0316 µM): 26.6%
viability, T/C (second compound 10 µM, first compound 0.1 µM): 26.6%
viability, T/C (second compound 10 µM, first compound 0.316 µM): 24.4%
viability, T/C (second compound 10 µM, first compound 1 µM): 21.8%
viability, T/C (second compound 10 µM, first compound 3.16 µM): 26.1%
viability, T/C (second compound 10 µM, first compound 10 µM): 21.6%

NC(=O)C(=Cn1cnc(-c2cc(C(F)(F)F)cc(C(F)(F)F)c2)n1)c1cncnc1 + CNC(=O)c1ccc(Nc2nc(OC3CCCC3)c3c(-c4ccc5nc(C)oc5c4)c[nH]c3n2)c(OC)c1
IC50 (second compound 0.0316 µM): 330 nM
IC50 (second compound 0.1 µM): 411 nM
IC50 (second compound 0.316 µM): 61.9 nM
IC50 (second compound 1 µM): < 9.49 nM
IC50 (second compound 3.16 µM): < 9.49 nM
IC50 (second compound 10 µM): < 9.49 nM
viability, T/C (second compound 0.0316 µM, first compound 0.00949 µM): 115%
viability, T/C (second compound 0.0316 µM, first compound 0.03 µM): 92.4%
viability, T/C (second compound 0.0316 µM, first compound 0.0949 µM): 66.3%
viability, T/C (second compound 0.0316 µM, first compound 0.3 µM): 55%
viability, T/C (second compound 0.0316 µM, first compound 0.949 µM): 35.7%
viability, T/C (second compound 0.0316 µM, first compound 3 µM): 8.15%
viability, T/C (second compound 0.1 µM, first compound 0.00949 µM): 105%
viability, T/C (second compound 0.1 µM, first compound 0.03 µM): 96.4%
viability, T/C (second compound 0.1 µM, first compound 0.0949 µM): 71%
viability, T/C (second compound 0.1 µM, first compound 0.3 µM): 55.3%
viability, T/C (second compound 0.1 µM, first compound 0.949 µM): 37.2%
viability, T/C (second compound 0.1 µM, first compound 3 µM): 11.1%
viability, T/C (second compound 0.316 µM, first compound 0.00949 µM): 54.1%
viability, T/C (second compound 0.316 µM, first compound 0.03 µM): 55.3%
viability, T/C (second compound 0.316 µM, first compound 0.0949 µM): 47.9%
viability, T/C (second compound 0.316 µM, first compound 0.3 µM): 38.1%
viability, T/C (second compound 0.316 µM, first compound 0.949 µM): 28.3%
viability, T/C (second compound 0.316 µM, first compound 3 µM): 4.69%
viability, T/C (second compound 1 µM, first compound 0.00949 µM): 35.7%
viability, T/C (second compound 1 µM, first compound 0.03 µM): 31.3%
viability, T/C (second compound 1 µM, first compound 0.0949 µM): 28.1%
viability, T/C (second compound 1 µM, first compound 0.3 µM): 18.8%
viability, T/C (second compound 1 µM, first compound 0.949 µM): 12.8%
viability, T/C (second compound 1 µM, first compound 3 µM): 1%
viability, T/C (second compound 3.16 µM, first compound 0.00949 µM): 31.4%
viability, T/C (second compound 3.16 µM, first compound 0.03 µM): 30.6%
viability, T/C (second compound 3.16 µM, first compound 0.0949 µM): 26.1%
viability, T/C (second compound 3.16 µM, first compound 0.3 µM): 19.3%
viability, T/C (second compound 3.16 µM, first compound 0.949 µM): 5.51%
viability, T/C (second compound 3.16 µM, first compound 3 µM): 0.93%
viability, T/C (second compound 10 µM, first compound 0.00949 µM): 32.6%
viability, T/C (second compound 10 µM, first compound 0.03 µM): 25.8%
viability, T/C (second compound 10 µM, first compound 0.0949 µM): 22.5%
viability, T/C (second compound 10 µM, first compound 0.3 µM): 19.9%
viability, T/C (second compound 10 µM, first compound 0.949 µM): 4.71%
viability, T/C (second compound 10 µM, first compound 3 µM): 0.78%
